Bridge positions count the residues as written; N and C are the ends. Square brackets hold non-standard residues; d marks the D form. Ends that are not written are not given here. I, II: the chains in the order shown. βAla = NCCC(=O)O
What was measured:
[1] = system: HeLa cells; experiment: BrdU incorporation cell proliferation assay, HeLa cells; format: cell-based; conditions: 24 hrs, dose-dependent
Protocol: (§1) HeLa cells were grown in Dulbecco's Modified Eagle's Medium (DMEM) supplemented with fetal calf serum (FCS) and HL60 cells in RPMI 1640 supplemented with 10% FCS. Cells were treated with peptides in culture medium and incubated overnight before harvesting.
The peptides were tested in further experiments for their effect on cell cycle progression and cell viability. For this purpose, the peptides were conjugated at their C-terminus to a cell penetrating HIV-Tat derived peptide (aa 48-60) (Fawell et al. (1994) Proc. Natl. Acad. Sci. USA 91, 664-668).
(§2) HeLa, 3T3, W138 cells were treated with varying concentration of MAP-4-SEQ ID NO:2-TAT and a control peptide MAP-4-SEQ ID NO:39-TAT wherein SEQ ID NO:39 is SEQ ID NO:2 but containing 2 alanine substitutions at positions 1 and 4, i.e. AVRAHF (SEQ ID NO:39) DNA replication was analysed by BrdU incorporation after 24 hours.
(§3) Four tumor cell lines U2OS (osteosarcoma), C33A (cervical carcinoma), HeLa (cervical carcinoma) and E2F4/ras (derived from primary rat embryo fibroblasts) were treated with the branched peptide MAP-4-SEQ ID NO:2-TAT or mutant control peptide MAP-4-SEQ ID NO:39-TAT for 24 hrs. Cell proliferation was measured using the BrDU proliferation assay from Boehringer Mannheim (Cat No. 1 647 229).

[2] = system: HL60 cells; experiment: Growth of HL60 cells treated with peptide; format: cell-based
Protocol: as §1, §2
(§4) Effects became visible after 5-24 hours defending on the concentration of the peptide.

[3] = system: HL60 cells; experiment: Apoptosis, staining of HL60 cells with Heochst 33342 propidium iodide; format: cell-based
Protocol: as §4

[4] = system: HL60 cells; experiment: Nuclease-laddering assay (DNA laddering) in HL60 cells; format: cell-based
Protocol: Treated cells were collected, washed with PBS, resuspended in lysis buffer (50 mM Tris pH 7.9, 100 mM EDTA, pH 8, 100 mM NaCl, 1% SDS) and 500 μg/ml proteinase K and incubated at 55° C. for 18 h. Cells were then incubated with […] for 1 hour at 37° C., genomic DNA was purified and examined by agarose gel electrophoresis.
as §4

[5] = system: CycA promoter; experiment: Transcription from the CycA promoter, HeLa cells transiently transfected with CycA-Luciferase construct; format: cell-based
Description: (§5) This finding is in agreement with the anti-repressor function of E2F in the CycA promoter, (Liu et al, Oncogene (1998), 16, 2957-2963).

[6] = system: SV-40 promoter; experiment: Transcription from the SV-40 promoter (control), HeLa cells; format: cell-based
Description: as §5

[7] = system: U2OS (osteosarcoma); experiment: BrDU proliferation assay, U2OS cells; format: cell-based; conditions: 24 hrs, dose-dependent
Protocol: as §3

[8] = system: C33A (cervical carcinoma); experiment: BrDU proliferation assay, C33A cells; format: cell-based; conditions: 24 hrs, dose-dependent
Protocol: as §3

[9] = system: E2F4/ras (derived from primary rat embryo fibroblasts); experiment: BrDU proliferation assay, E2F4/ras cells; format: cell-based; conditions: 24 hrs, dose-dependent
Protocol: as §3

[10] = biological target: T1, recombinant E2F1 N1-His (64-301) with DP1 N2-GST (84-249) (human, UniProt Q01094 64-301; Q14186 84-249); experiment: deletion analysis; inhibition of E2F DNA binding (band shift)
T1 construct: range 64-301;range 84-249; Both proteins were incubated together at 10 ug/ml in the band shift assay with a 32P-labelled B-myb E2F-site probe; also called recombinant E2F1 and DP1; not shown: His tag from vector pET28b; GST fusion partner
T1 sequence (Q01094 64-301, chain 1 of 2): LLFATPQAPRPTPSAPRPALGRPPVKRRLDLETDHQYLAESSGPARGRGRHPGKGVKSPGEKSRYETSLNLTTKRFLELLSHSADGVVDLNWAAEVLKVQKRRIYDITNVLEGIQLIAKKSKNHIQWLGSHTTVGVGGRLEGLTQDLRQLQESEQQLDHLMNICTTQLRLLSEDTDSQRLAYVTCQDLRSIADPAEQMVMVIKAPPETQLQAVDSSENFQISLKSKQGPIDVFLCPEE
T1 sequence (Q14186 84-249, chain 2 of 2): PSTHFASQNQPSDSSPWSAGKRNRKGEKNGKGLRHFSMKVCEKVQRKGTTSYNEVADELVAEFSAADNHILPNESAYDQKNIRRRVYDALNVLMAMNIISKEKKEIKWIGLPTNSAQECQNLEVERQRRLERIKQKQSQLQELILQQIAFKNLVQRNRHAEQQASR

[11] = biological target: T1, recombinant E2F1 N1-His (64-301) with …; experiment: band shift, recombinant E2F1 and DP1, displacement of 32P B-myb E2F-site probe
Protocol: Samples were run on 4% non denaturing polyacrylamide gel in 0.5% TBE at 4° C. Gels were exposed to X-ray films. […] The samples were then incubated for 10 minutes at 30° C. and cooled on ice. ^32P-labelled probe was added, the reaction mixtures were incubated for another 10 minutes at 30° C. and then cooled on ice.
The inhibitory potential of the peptides on E2F function was analysed in band shift assays with recombinant E2F1 and DP1.

With “I: WVRWHFGRKKRRQRRRPPQKK[βAla] / II: WVRWHFGRKKRRQRRRPPQK / III: WVRWHFGRKKRRQRRRPPQ / IV: WVRWHFGRKKRRQRRRPPQ (amide I:20-IV:C, I:21-II:C, II:20-III:C) [MAP-4-SEQ ID NO:2-TAT]” the inhibition of proliferation [1] was “inhibited proliferation”, the “inhibition of cell proliferation / cell growth” value ([2]; HL60 cells, concentrations between 1-5 μM) was “Inhibition of cell proliferation” and the “time after which effects became visible” value ([2]; depending on the concentration of the peptide) was 5 to 24 h. For the same molecule, the “hallmarks of apoptosis after staining” value [3] was “chromatin condensation and nuclear fragmentation”, the DNA laddering [4] was “internucleosomal DNA cleavage” and the “effect on transcription from CycA-Luciferase construct” value [5] was “Inhibition of transcription”. For the same molecule, the “effect on the SV-40 promoter” value [6] was “No effect”, the inhibition of proliferation [7] was “inhibited proliferation” and the inhibition of proliferation [8] was “inhibited proliferation”. For the same molecule, the inhibition of proliferation [9] was “inhibited proliferation”.

B1: SEQ5-7 (3-13) (RILTFRSGSWY) (peptide)
peptide: RILTFRSGSWY
notes: also called core-region consisting of amino acids 3-13
B1 was tested, and the “inhibitory activity relative to SEQ ID NO:5” value [10] was ~50%.

B2: peptide SEQ ID NO:4 (IWLSGLSRGVWVSFP) (peptide)
peptide: IWLSGLSRGVWVSFP
notes: Synthetic peptide in the band shift assays
B2: binds [11].

— US6841385B2, “Transcription factor E2F DNA-binding domain inhibitor peptides and their use” (Topotarget UK Limited, priority 1999, dated 2005)
